What was measured:
[1] = logP determination by HPLC on reversed-phase column (C18), EEC Directive 79/831 Annex V.A8; type: physicochemical; settings: pH 2.3, HPLC reversed-phase C18, 43° C., 0.1% aqueous phosphoric acid/acetonitrile
Description: The logP values stated in the above tables and preparation examples are determined as described in EEC Directive 79/831 Annex V.A8 by means of HPLC (high performance liquid chromatography) on a reversed-phase column (C18). Temperature: 43° C. The determination is effected in the acidic range at pH 2.3 using 0.1% aqueous phosphoric acid and acetonitrile as eluents; linear gradient from 10% acetonitrile to 90% acetonitrile. The calibration is effected with unbranched alkan-2-ones (having 3 to 16 carbon atoms) whose logP values are known (determination of the logP values with reference to the retention times by linear interpolation between two successive alkanones).

Pyrenophora teres = Pyrenophora teres test (barley)/protective; type: in vivo; settings: protective spray, application rate 1000 ppm, evaluated 8 days after inoculation
Description: Pyrenophora teres Test (Barley)/Protective To prepare an expedient active compound preparation, 1 part by weight of active compound is mixed with the stated amounts of solvent and emulsifier, and the concentrate is diluted to the desired concentration with water. To test for protective activity, young plants are sprayed with the active compound preparation at the application rate stated. After the spray coating has dried on, the plants are sprayed with a conidial suspension of Pyrenophora teres. The plants remain in an incubation cabinet for 48 hours at 20° C. and 100% relative atmospheric humidity. The plants are then placed into a greenhouse at a temperature of approximately 20° C. and a relative atmospheric humidity of approximately 80%. The test is evaluated 8 days after the inoculation. 0% means an efficacy which corresponds to that of the control, while an efficacy of 100% means that no disease is observed.

Leptosphaeria nodorum = Leptosphaeria nodorum test (wheat)/protective; type: in vivo; settings: protective spray, application rate 1000 ppm, evaluated 10 days after inoculation
Description: Leptosphaeria nodorum Test (Wheat)/Protective To prepare an expedient active compound preparation, 1 part by weight of active compound is mixed with the stated amounts of solvent and emulsifier, and the concentrate is diluted to the desired concentration with water. To test for protective activity, young plants are sprayed with the active compound preparation at the application rate stated. After the spray coating has dried on, the plants are sprayed with a spore suspension of Leptosphaeria nodorum. The plants remain in an incubation cabinet for 48 hours at 20° C. and 100% relative atmospheric humidity. The plants are then placed into a greenhouse at a temperature of approximately 15° C. and a relative atmospheric humidity of approximately 80%. The test is evaluated 10 days after the inoculation. 0% means an efficacy which corresponds to that of the control, while an efficacy of 100% means that no disease is observed.

Botrytis cinerea = test: Botrytis test (bean)/protective; type: in vivo; settings: protective spray, application rate 100 ppm, lesion size evaluated 2 days after inoculation
Description: [table] To prepare an expedient active compound preparation, 1 part by weight of active compound is mixed with the stated amounts of solvent and emulsifier, and the concentrate is diluted to the desired concentration with water. To test for protective activity, young plants are sprayed with the active compound preparation at the application rate stated. After the spray coating has dried on, 2 small agar blocks which sustain the growth of Botrytis cinerea are placed on each leaf. The inoculated plants are placed in a darkened chamber at approximately 20° C. and 100% relative atmospheric humidity. 2 days after the inoculation, the size of the lesions on the leaves is evaluated. 0% means an efficacy which corresponds to that of the control, while an efficacy of 100% means that no disease is observed.

[2] = test system: Erysiphe graminis fsp. hordei; test: Erysiphe test (barley)/protective; type: in vivo; settings: protective spray, application rate 1000 ppm, evaluated 7 days after inoculation
Description: Erysiphe Test (Barley)/Protective To prepare an expedient active compound preparation, 1 part by weight of active compound is mixed with the stated amounts of solvent and emulsifier, and the concentrate is diluted to the desired concentration with water. To test for protective activity, young plants are sprayed with the active compound preparation at the application rate stated. After the spray coating has dried on, the plants are dusted with spores of Erysiphe graminis fsp. hordei. The plants are placed in a greenhouse at a temperature of approximately 20° C. and a relative atmospheric humidity of approximately 80% to favour the development of mildew pustules. The test is evaluated 7 days after the inoculation. 0% means an efficacy which corresponds to that of the control, while an efficacy of 100% means that no disease is observed.

Cc1ccc(-c2cc(F)ccc2N)cc1F [Example (III-2), 5,3′-difluoro-4′-methylbiphenyl-2-ylamine]
chromatographic logP [1]: 2.94

Cn1cc(C(=O)Nc2cc(F)ccc2-c2ccc(F)c(Cl)c2)c(C(F)F)n1 [drawing 18, reference compound]
Efficacy in % (Pyrenophora teres): 93%

Cn1cc(C(=O)Nc2cc(F)ccc2-c2ccc(F)c(Cl)c2)c(C(F)F)n1 [drawing 22, reference compound]
Efficacy in % (Leptosphaeria nodorum): 0%

Cn1cc(C(=O)Nc2ccc(F)cc2-c2ccc(Cl)c(F)c2)c(C(F)F)n1 [drawing 19]
Efficacy in % (Pyrenophora teres): 100%

Cn1cc(C(=O)Nc2ccc(F)cc2-c2ccc(Cl)c(F)c2)c(C(F)F)n1 [Example 1, N-(4′-chloro-3′,5-difluorobiphenyl-2-yl)-3-(difluoromethyl)-1-methyl-1H-pyrazole-4-carboxamide]
chromatographic logP [1]: 3.05

Cc1ccc(-c2cc(F)ccc2NC(=O)c2cn(C)nc2C(F)(F)F)cc1F [N-(5,3′-difluoro-4′-methylbiphenyl-2-yl)-1-methyl-3-trifluoromethyl-1H-pyrazole-4-carboxamide]
chromatographic logP [1]: 3.27

Cn1cc(C(=O)Nc2cc(F)ccc2-c2ccc(F)c(Cl)c2)c(C(F)F)n1 [drawing 15, reference compound]
Efficacy in % (Botrytis cinerea): 52%

Cn1cc(C(=O)Nc2cc(F)ccc2-c2ccc(F)c(Cl)c2)c(C(F)F)n1 [drawing 20, reference compound]
Efficacy in % [2]: 33%

Cc1ccc(-c2cc(F)ccc2NC(=O)c2cn(C)nc2C(F)F)cc1F [N-(5,3′-difluoro-4′-methylbiphenyl-2-yl)-3-difluoromethyl-1-methyl-1H-pyrazole-4-carboxamide]
chromatographic logP [1]: 3.05

Cn1cc(C(=O)Nc2ccc(F)cc2-c2ccc(Cl)c(F)c2)c(C(F)(F)F)n1 [N-(4′-chloro-5,3′-difluorobiphenyl-2-yl)-1-methyl-3-trifluoromethyl-1H-pyrazole-4-carboxamide]
chromatographic logP [1]: 3.26

Cn1cc(C(=O)Nc2ccc(F)cc2-c2ccc(Cl)c(F)c2)c(C(F)F)n1 [drawing 23]
Efficacy in % (Leptosphaeria nodorum): 84%

Cn1cc(C(=O)Nc2ccc(F)cc2-c2ccc(F)c(Cl)c2)c(C(F)F)n1
Efficacy in % (Botrytis cinerea): 87%

Cn1cc(C(=O)Nc2ccc(F)cc2-c2ccc(Cl)c(F)c2)c(C(F)F)n1 [drawing 21]
Efficacy in % [2]: 78%

Cn1cc(C(=O)Nc2ccc(F)cc2-c2ccc(Cl)c(F)c2)c(C(F)F)n1 [drawing 17]
Efficacy in % (Botrytis cinerea): 100%

— patent US8580971B2, “Alkyl-analide producing method” (Bayer CropScience AG, priority 2005, dated 2013)
